Marks after values point to notes of the source that are not given here.

This note sets out measurements from patent US20110306598A1, “Use of the association of a sinus node if current inhibitor and an angiotensin-converting enzyme inhibitor in the treatment of heart failure” (LES LABORATOIRES SERVIER, priority 2010, published 2011).

Assay [1] deals with rats with heart failure (left coronary artery ligature). In words: Heart failure induced in rats by ligature of the left coronary artery; compound A, perindopril or both for 12 weeks. The conditions noted are these: HF rats; for LVEDPVR: compliance of LV; for LVEDPVR / LVEDP / LVESP / LVESPVR / cardiac output / dP/dtmax / dP/dtmin / shortening fraction (% of the diameter of the LV) / Heart rate / tau: compound A 3 mg/kg, perindopril 0.4 mg/kg; for LVEDPVR / LVEDP / LVESP / LVESPVR / cardiac output / dP/dtmax / dP/dtmin / shortening fraction (% of the diameter of the LV) / tau: 12 weeks; for tau: relaxation time. The assay is classed as in vivo, rat. As for the experimental part:
(§1) Heart failure was induced in rats by ligature of the left coronary artery (the control animals undergo an operation but are not ligated), which causes ischaemia of part of the wall of the left ventricle. The animals recuperate for 7 days and then, for 12 weeks, they are given either 3 mg/kg of compound A, or 0.4 mg/kg of perindopril, or perindopril and compound A concomitantly.

Assay [2] shares this test system. In words: Same rat heart failure model; ivabradine, perindopril or their association. The conditions noted are these: HF rats. The assay is classed as in vivo. As for the experimental part:
as §1
This effect on systolic function and diastolic function was then studied using the association of perindopril and a different If current inhibitor, ivabradine.

Where [3] appears, read: Table 4B, ivabradine on its own.

In the case of `COc1cc2c(cc1OC)CCN(C(=O)CCN(C)C[C@H]1Cc3cc(OC)c(OC)cc31)CC2` [compound A, N-{[(7S)-3,4-dimethoxybicyclo[4.2.0]octa-1,3,5-trien-7-yl]methyl}-3-(7,8-dimethoxy-1,2,4,5-tetrahydro-3H-3-benzazepin-3-yl)-N-methyl-3-oxo-1-propanamine], in assay [1], the “effect on compliance of the left ventricle, measured by LVEDPVR (in words)” value is “very clearly improved”; the “effect on end diastolic pressure and relaxation time (in words)” value is given as “clearly improved”; the “effect on systolic function, seen from the LVESPVR (in words)” value was “improves systolic function”; the LVEDPVR is 2.70^† mmHg/RVU. Further, in assay [1], the LVEDP is 4.89^† mmHg, the LVESP is 118 mmHg, the LVESPVR is reported as 16.1^† mmHg/RVU and the cardiac output was determined as 127 mL/min. For the same molecule, in assay [1], the dP/dtmax is on record as 6.78 10^3 mmHg/s, the dP/dtmin is recorded as 5.87 −10^3 mmHg/s, the “shortening fraction (% of the diameter of the LV)” value is 18.0 % of the diameter of the LV and the tau is listed as 8.37^† ms. Besides, the Heart rate in assay [1] (duration of treatment 4 weeks) is 349.3 bpm. Moreover, the Heart rate in assay [1] (duration of treatment 12 weeks) is 342.7^† bpm. In addition, in assay [1] (vs untreated HF), the “effect on heart rate (in words)” value is listed as “significant reduction in heart rate”.

With `CCC[C@H](N[C@@H](C)C(=O)N1[C@H](C(=O)O)C[C@@H]2CCCC[C@@H]21)C(=O)OCC` [perindopril], in assay [1], the “effect on compliance of the left ventricle, measured by LVEDPVR (in words)” value is recorded as “very clearly improved”; the “effect on end diastolic pressure and relaxation time (in words)” value was “clearly improved”; the “effect on systolic function, seen from the LVESPVR (in words)” value was “improves systolic function”; the LVEDPVR is recorded as 2.36^† mmHg/RVU. In addition, in assay [1], the LVEDP is on record as 5.17^† mmHg, the LVESP is reported as 99 mmHg, the LVESPVR was 16.4^† mmHg/RVU and the cardiac output is on record as 142^† mL/min. In assay [1], the dP/dtmax is 5.97 10^3 mmHg/s, the dP/dtmin is 5.11 −10^3 mmHg/s, the “shortening fraction (% of the diameter of the LV)” value is on record as 17.1 % of the diameter of the LV and the tau is given as 7.31^† ms. In assay [1] (duration of treatment 4 weeks), this molecule came in with a Heart rate of 388.2 bpm. The molecule further displayed a Heart rate in assay [1] (duration of treatment 12 weeks) of 387.7 bpm. Also, in assay [2], the “effect on systolic function (in words)” value is “improves the systolic function”. Further, in assay [2] (Table 4a), the LVEDP is 6.88^† mmHg, the LVEDPVR was 2.25^† mmHg/RVU, the LVESP is listed as 102^† mmHg and the LVESPVR is given as 14.5^† mmHg/RVU. In assay [2] (Table 4a), the dP/dtmax is 6.08^† 10^3 mmHg/s, the dP/dtmin is reported as 4.99 −10^3 mmHg/s and the tau is 10.92^† ms.

With `COc1cc2c(cc1OC)CC(=O)N(CCCN(C)C[C@H]1Cc3cc(OC)c(OC)cc31)CC2` [ivabradine, 3-{3-[{[(7S)-3,4-dimethoxybicyclo[4.2.0]octa-1,3,5-trien-7-yl]-methyl}(methyl)amino]propyl}-7,8-dimethoxy-1,3,4,5-tetrahydro-2H-3-benzazepin-2-one], in assay [2], the “effect on diastolic dysfunction (in words)” value was “comparable to that of perindopril on its own”. In assay [2] (setting [3]), the LVEDPVR is 1.87*^† mmHg/RVU and the LVESPVR was 20.63*^† mmHg/RVU.
